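Tested at 5 concentrations; 48 h exposure; 96-well plates; endpoints linearly interpolated, else capped at highest concentration. TGI: concentration producing complete growth inhibition.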
Assays:
Test in all cases: DTP human tumour cell line panel, 48 h
CAKI-1 renal = tested on: CAKI-1 renal
SK-MEL-2 melanoma = tested on: SK-MEL-2 melanoma
SK-MEL-28 melanoma = tested on: SK-MEL-28 melanoma
ACHN renal = tested on: ACHN renal
OVCAR-4 ovarian = tested on: OVCAR-4 ovarian
XF 498 CNS = tested on: XF 498 CNS
HL-60(TB) leukemia = tested on: HL-60(TB) leukemia
UACC-62 melanoma = tested on: UACC-62 melanoma
SK-MEL-5 melanoma = tested on: SK-MEL-5 melanoma
DLD-1 colon = tested on: DLD-1 colon
SR leukemia = tested on: SR leukemia
OVCAR-3 ovarian = tested on: OVCAR-3 ovarian
M19-MEL melanoma = tested on: M19-MEL melanoma
KM20L2 colon = tested on: KM20L2 colon
SN12C renal = tested on: SN12C renal
DMS 114 small cell lung = tested on: DMS 114 small cell lung
HOP-62 NSCLC = tested on: HOP-62 NSCLC
786-0 renal = tested on: 786-0 renal
MOLT-4 leukemia = tested on: MOLT-4 leukemia
IGROV1 ovarian = tested on: IGROV1 ovarian
RPMI-8226 leukemia = tested on: RPMI-8226 leukemia
HCT-15 colon = tested on: HCT-15 colon
TK-10 renal = tested on: TK-10 renal
DMS 273 small cell lung = tested on: DMS 273 small cell lung
COLO 205 colon = tested on: COLO 205 colon
MALME-3M melanoma = tested on: MALME-3M melanoma
SNB-19 CNS = tested on: SNB-19 CNS
SW-620 colon = tested on: SW-620 colon
OVCAR-8 ovarian = tested on: OVCAR-8 ovarian
OVCAR-5 ovarian = tested on: OVCAR-5 ovarian
A498 renal = tested on: A498 renal
HCC-2998 colon = tested on: HCC-2998 colon
HOP-92 NSCLC = tested on: HOP-92 NSCLC
LXFL 529 NSCLC = tested on: LXFL 529 NSCLC
SNB-78 CNS = tested on: SNB-78 CNS
LOX IMVI melanoma = tested on: LOX IMVI melanoma
UACC-257 melanoma = tested on: UACC-257 melanoma
SF-268 CNS = tested on: SF-268 CNS
KM12 colon = tested on: KM12 colon
SF-539 CNS = tested on: SF-539 CNS
HCT-116 colon = tested on: HCT-116 colon
UO-31 renal = tested on: UO-31 renal
A549 NSCLC = tested on: A549 NSCLC
SF-295 CNS = tested on: SF-295 CNS
NCI-H226 lung = tested on: NCI-H226 lung
NCI-H460 lung = tested on: NCI-H460 lung
U251 CNS = tested on: U251 CNS
K-562 leukemia = tested on: K-562 leukemia
EKVX NSCLC = tested on: EKVX NSCLC
HT29 colon = tested on: HT29 colon
NCI-H23 lung = tested on: NCI-H23 lung
M14 melanoma = tested on: M14 melanoma
NCI-H522 lung = tested on: NCI-H522 lung
CCRF-CEM leukemia = tested on: CCRF-CEM leukemia
RXF 393 renal = tested on: RXF 393 renal
SK-OV-3 ovarian = tested on: SK-OV-3 ovarian
SNB-75 CNS = tested on: SNB-75 CNS
HOP-18 NSCLC = tested on: HOP-18 NSCLC

Molecule `CN/N=C(/CC(=O)c1sc(NNC(C)=O)nc1C)C(=O)Nc1ccc(OC)cc1OC` has a TGI (CAKI-1 renal) greater than 100 µM, a TGI (SK-MEL-2 melanoma) greater than 100 µM and a TGI (SK-MEL-28 melanoma) greater than 100 µM. For the same molecule, the TGI (ACHN renal) was greater than 100 µM, the TGI (OVCAR-4 ovarian) was greater than 100 µM and the TGI (XF 498 CNS) was greater than 100 µM. For the same molecule, the TGI (HL-60(TB) leukemia) was greater than 100 µM, the TGI (UACC-62 melanoma) was greater than 100 µM and the TGI (SK-MEL-5 melanoma) was greater than 100 µM. For the same molecule, the TGI (DLD-1 colon) was greater than 100 µM, the TGI (SR leukemia) was greater than 100 µM and the TGI (OVCAR-3 ovarian) was greater than 100 µM. It also gave a TGI (M19-MEL melanoma) greater than 100 µM, a TGI (KM20L2 colon) greater than 100 µM and a TGI (SN12C renal) greater than 100 µM. The TGI (DMS 114 small cell lung) was greater than 100 µM, the TGI (HOP-62 NSCLC) was greater than 100 µM and the TGI (786-0 renal) was greater than 100 µM. The TGI (MOLT-4 leukemia) was greater than 100 µM, the TGI (IGROV1 ovarian) was greater than 100 µM and the TGI (RPMI-8226 leukemia) was greater than 100 µM. It also gave a TGI (HCT-15 colon) greater than 100 µM, a TGI (TK-10 renal) greater than 100 µM and a TGI (DMS 273 small cell lung) greater than 100 µM. It also gave a TGI (COLO 205 colon) greater than 100 µM, a TGI (MALME-3M melanoma) greater than 100 µM and a TGI (SNB-19 CNS) greater than 100 µM. The TGI (SW-620 colon) was greater than 100 µM, the TGI (OVCAR-8 ovarian) was greater than 100 µM and the TGI (OVCAR-5 ovarian) was greater than 100 µM. For the same molecule, the TGI (A498 renal) was greater than 100 µM, the TGI (HCC-2998 colon) was greater than 100 µM and the TGI (HOP-92 NSCLC) was greater than 100 µM. It also gave a TGI (LXFL 529 NSCLC) greater than 100 µM, a TGI (SNB-78 CNS) greater than 100 µM and a TGI (LOX IMVI melanoma) greater than 100 µM. The TGI (UACC-257 melanoma) was greater than 100 µM, the TGI (SF-268 CNS) was greater than 100 µM and the TGI (KM12 colon) was greater than 100 µM. For the same molecule, the TGI (SF-539 CNS) was greater than 100 µM, the TGI (HCT-116 colon) was greater than 100 µM and the TGI (UO-31 renal) was greater than 100 µM. The TGI (A549 NSCLC) was greater than 100 µM, the TGI (SF-295 CNS) was greater than 100 µM and the TGI (NCI-H226 lung) was greater than 100 µM. The TGI (NCI-H460 lung) was greater than 100 µM, the TGI (U251 CNS) was greater than 100 µM and the TGI (K-562 leukemia) was greater than 100 µM. For the same molecule, the TGI (EKVX NSCLC) was greater than 100 µM, the TGI (HT29 colon) was greater than 100 µM and the TGI (NCI-H23 lung) was greater than 100 µM. For the same molecule, the TGI (M14 melanoma) was greater than 100 µM, the TGI (NCI-H522 lung) was greater than 100 µM and the TGI (CCRF-CEM leukemia) was greater than 100 µM.

For `CCC12C=CCN3CCC4(C(=C(C(=O)OC)C1)Nc1ccccc14)[C@H]32` (stereo not given in full), the TGI (CAKI-1 renal) was greater than 100 µM, the TGI (SK-MEL-2 melanoma) was 52 µM and the TGI (SK-MEL-28 melanoma) was greater than 100 µM. It also gave a TGI (ACHN renal) greater than 100 µM, a TGI (OVCAR-4 ovarian) greater than 100 µM and a TGI (HL-60(TB) leukemia) of 88.7 µM. It also gave a TGI (UACC-62 melanoma) of 67.6 µM, a TGI (SK-MEL-5 melanoma) greater than 100 µM and a TGI (DLD-1 colon) greater than 100 µM. For the same molecule, the TGI (SR leukemia) was 34.8 µM, the TGI (OVCAR-3 ovarian) was greater than 100 µM and the TGI (M19-MEL melanoma) was greater than 100 µM. The TGI (KM20L2 colon) was 47.6 µM, the TGI (DMS 114 small cell lung) was 49.5 µM and the TGI (786-0 renal) was 82 µM. The TGI (MOLT-4 leukemia) was 93 µM, the TGI (IGROV1 ovarian) was greater than 100 µM and the TGI (HCT-15 colon) was greater than 100 µM. It also gave a TGI (TK-10 renal) greater than 100 µM, a TGI (DMS 273 small cell lung) of 42.8 µM and a TGI (RXF 393 renal) of 56.7 µM. It also gave a TGI (COLO 205 colon) of 32.3 µM, a TGI (MALME-3M melanoma) greater than 100 µM and a TGI (SNB-19 CNS) of 75 µM. It also gave a TGI (SW-620 colon) of 86 µM, a TGI (OVCAR-5 ovarian) greater than 100 µM and a TGI (A498 renal) of 79.4 µM. For the same molecule, the TGI (SK-OV-3 ovarian) was 49.7 µM, the TGI (HCC-2998 colon) was greater than 100 µM and the TGI (HOP-92 NSCLC) was 87.7 µM. It also gave a TGI (LXFL 529 NSCLC) greater than 100 µM, a TGI (LOX IMVI melanoma) of 53.4 µM and a TGI (UACC-257 melanoma) greater than 100 µM. It also gave a TGI (SF-268 CNS) of 45.4 µM, a TGI (SNB-75 CNS) of 69 µM and a TGI (KM12 colon) greater than 100 µM. For the same molecule, the TGI (SF-539 CNS) was 47.5 µM, the TGI (HCT-116 colon) was greater than 100 µM and the TGI (UO-31 renal) was greater than 100 µM. For the same molecule, the TGI (A549 NSCLC) was greater than 100 µM, the TGI (SF-295 CNS) was 92.6 µM and the TGI (NCI-H226 lung) was 86.7 µM. The TGI (NCI-H460 lung) was 41.9 µM, the TGI (K-562 leukemia) was 52.5 µM and the TGI (EKVX NSCLC) was greater than 100 µM. The TGI (HT29 colon) was 46.8 µM, the TGI (HOP-18 NSCLC) was greater than 100 µM and the TGI (NCI-H23 lung) was 93.6 µM. It also gave a TGI (M14 melanoma) of 50.8 µM, a TGI (NCI-H522 lung) of 49.4 µM and a TGI (CCRF-CEM leukemia) of 79.5 µM.
